Test results reported in patent US5270325A, “P-hydroxy phenone derivatives used in the treatment of cardiac arrhythmia” (BASF Aktiengesellschaft, priority 1988, dated 1993).

Test system: arrhythmias
Experiment: not given
Details: literature: Circulation 68 (1983) 88-94; Am. Heart J. 109 (1985) 949-958; J. Clin. Pharmacol. 27 (1987) 708; cited from earlier work

| Compound | acting against arrhythmias which are otherwise resistant to therapy |
| --- | --- |
| CC(C)NCC(O)c1ccc(NS(C)(=O)=O)cc1 (single isomer, unassigned) [D-Sotalol] | acting against arrhythmias which are otherwise resistant to therapy, especially reentry arrhythmias |
| CCCCc1oc2ccccc2c1C(=O)c1cc(I)c(OCCN(CC)CC)c(I)c1 [amiodarone] | acting against arrhythmias which are otherwise resistant to therapy, especially reentry arrhythmias |

Test system: QT interval
Experiment: Class III antiarrhythmic action in guinea-pigs after intravenous administration (increase in the QT interval, ECG)
Format: in vivo, Pirbright white guinea-pigs
Details: Cavia porcellus, anesthetized (urethane) guinea-pigs, ED 20% from linear relation between log dose and relative increase in the QT interval
Procedure: The experimental animals are male and female Pirbright white guinea-pigs weighing from 300 to 500 g. They are anesthetized with 1.5 g/kg urethane i.p. The substances are administered intravenously. The ECG conduction times and the heart rate are measured from a recording from extremity lead II. The measured variables are the QT and PQ intervals and the heart rate. 4 to 6 animals are used per dose. The criterion of a class III action is an increase in the QT interval compared with the values before administration of the substance. An increase in PQ and a large decrease in the heart rate serve as exclusion criteria. The ED 20% is calculated from the linear relation between log dose (mg/kg) of the substance and the relative increase in the QT interval (in %).

| Compound | ED (20%) [mg/kg] |
| --- | --- |
| CC(C)NCC(O)c1ccc(NS(C)(=O)=O)cc1 (single isomer, unassigned) [D-Sotalol] | 3.6 |
| Cc1cc(C(=O)/C=C/c2cccn2C)cc(C)c1OCCN1CCCC1.O=C(O)/C=C/C(=O)O [Example 2, 3,5-Dimethyl-4-[2-(1-pyrrolidinyl)ethoxy]phenyl E-2-(1-methyl-2-pyrrolyl)ethenyl ketone fumarate] | 1.1 |
| Cc1ccsc1/C=C/C(=O)c1cc(C)c(OCCN2CCCC2)c(C)c1.O=C(O)/C=C/C(=O)O [Example 4, 3,5-Dimethyl-4-[2-(1-pyrrolidinyl)ethoxy]phenyl E-2-(3-methyl-2-thienyl)ethenyl ketone fumarate] | 1.2 |
| Cc1cc(C(=O)/C=C/c2ccccc2C(F)(F)F)cc(C)c1OCCN1CCCC1.O=C(O)/C=C/C(=O)O [Example 5, 3',5'-Dimethyl-4'-[2-(1-pyrrolidinyl)ethoxy]-2-trifluoromethylchalcone fumarate] | 1 |
